Test results as given in article PMC7000521, “Hazard Characterization of Synthetic Cathinones Using Viability, Monoamine Reuptake, and Neuronal Activity Assays” (Frontiers in Neuroscience, 2020).
Where two headings read alike, the source gives them in different places.

Experiments:
hNET = target: T1, hNET (Homo sapiens, UniProt P23975); assay: Monoamine uptake assay (fluorescent substrate), hNET; assay type: cell-based
T1 construct: expressed in transfected cells
Protocol: (§1) Human embryonic kidney (HEK) 293 cells stably expressing human DAT, NET, or SERT (kindly provided by Dr. Hoener from F. Hoffmann-La Roche Ltd., Basel, Switzerland) were cultured as described in [Zwartsen et al. (2017)].
(§2) Uptake activity of hNET, hDAT, and hSERT was measured using the Neurotransmitter Transporter Uptake Assay Kit from MDS Analytical Technologies (Sunnyvale, CA, United States) as described in detail previously ([Zwartsen et al., 2017]). The kit contained a mixture consisting of a fluorescent substrate, which resembles the biogenic amine neurotransmitters, and a masking dye that extinguishes extracellular fluorescence. Uptake of the fluorescent substrate, a measure of neurotransmitter transporter function, increases intracellular fluorescence, while extracellular fluorescence is blocked by the masking dye ([Jorgensen et al., 2008]). […]
(§3) On day 0, HEK 293 cells were seeded (60,000 cells/well) in clear-bottom black-walled 96-well plates coated with poly-L-lysine (PLL, 50 mg/L). […] During incubation, intracellular fluorescence was measured every 3 min. […] Effects of 3-MMC, 4-MMC, 4-MEC, methylone, pentedrone, MDPV, 3-MMCinternet, and 4-MECinternet were measured at final concentrations of 0.03–300/1000 μM. Fluorescence was measured with a microplate reader (Tecan Infinite M200 microplate; Tecan Trading Männedorf, Switzerland) at 37°C at 430/515 nm excitation/emission wavelength. […]

hSERT = target: T2, hSERT (Homo sapiens, UniProt P31645); assay: Monoamine uptake assay (fluorescent substrate), hSERT; assay type: cell-based
T2 construct: expressed in transfected cells
T2 sequence (P31645 whole entry): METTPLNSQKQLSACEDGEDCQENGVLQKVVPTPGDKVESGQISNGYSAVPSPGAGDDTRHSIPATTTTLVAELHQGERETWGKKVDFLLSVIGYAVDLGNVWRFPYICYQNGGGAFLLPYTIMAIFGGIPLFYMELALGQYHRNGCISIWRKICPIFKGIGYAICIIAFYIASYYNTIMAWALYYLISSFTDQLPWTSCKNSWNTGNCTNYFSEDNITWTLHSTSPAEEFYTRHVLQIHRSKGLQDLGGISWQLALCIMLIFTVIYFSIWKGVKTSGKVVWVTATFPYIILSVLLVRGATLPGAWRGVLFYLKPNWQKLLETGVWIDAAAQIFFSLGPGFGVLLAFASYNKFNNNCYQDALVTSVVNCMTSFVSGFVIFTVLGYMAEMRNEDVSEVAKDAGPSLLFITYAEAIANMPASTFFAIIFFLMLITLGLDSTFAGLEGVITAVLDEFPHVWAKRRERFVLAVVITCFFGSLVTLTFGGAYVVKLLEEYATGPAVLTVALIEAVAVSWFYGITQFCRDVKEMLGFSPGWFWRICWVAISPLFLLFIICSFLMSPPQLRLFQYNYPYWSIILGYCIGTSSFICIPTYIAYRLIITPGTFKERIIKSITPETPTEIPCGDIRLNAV
Protocol: as §1, §2, §3

[1] = system: rat primary cortical cultures; design: method as in Zwartsen et al., 2019; details: value [CI], published previously ref Zwartsen et al., 2019, cited from earlier work

T1 sequence (P23975 whole entry): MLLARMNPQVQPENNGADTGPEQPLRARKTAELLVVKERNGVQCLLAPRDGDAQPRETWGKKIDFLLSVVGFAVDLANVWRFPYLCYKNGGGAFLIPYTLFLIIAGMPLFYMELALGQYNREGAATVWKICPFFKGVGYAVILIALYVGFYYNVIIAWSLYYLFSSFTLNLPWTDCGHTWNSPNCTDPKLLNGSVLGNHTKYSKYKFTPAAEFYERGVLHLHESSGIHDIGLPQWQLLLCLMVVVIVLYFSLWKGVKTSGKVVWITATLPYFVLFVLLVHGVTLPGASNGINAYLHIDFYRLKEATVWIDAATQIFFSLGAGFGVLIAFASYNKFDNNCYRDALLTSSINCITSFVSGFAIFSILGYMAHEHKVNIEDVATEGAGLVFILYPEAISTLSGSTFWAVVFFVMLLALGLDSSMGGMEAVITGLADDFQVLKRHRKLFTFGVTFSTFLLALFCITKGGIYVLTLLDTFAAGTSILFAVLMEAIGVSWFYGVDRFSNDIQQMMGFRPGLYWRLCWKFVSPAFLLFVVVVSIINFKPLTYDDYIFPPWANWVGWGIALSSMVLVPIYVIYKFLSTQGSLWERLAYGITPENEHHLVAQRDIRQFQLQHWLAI

Structure (SMILES): CCCC(C(=O)c1ccc2c(c1)OCO2)N1CCCC1 (stereo not shown) [MDPV, 1-(1,3-benzodioxol-5-yl)-2-pyrro lidin-1-ylpentan-1-one]
- IC50 (hNET): 0.03 µM
- IC50 (hSERT): 4.5 µM
- IC50 ([1]; acute exposure 30 min, read-out: Neuronal activity IC50, mean burst rate (MBR), acute): 40 µM
- IC50 ([1]; acute exposure 30 min, read-out: Neuronal activity IC50, mean network burst rate (MNBR), acute): 35 µM
- IC50 ([1]; acute exposure 30 min, read-out: Neuronal activity IC50, mean spike rate (MSR), acute): 30 µM
- IC50 ([1]; prolonged exposure 4.5 h, read-out: Neuronal activity IC50, mean burst rate (MBR), prolonged): 61 µM

Structure (SMILES): CCCC(NC)C(=O)c1ccccc1 (stereo not shown) [Pentedrone, 2-(methylamino)-1-phenyl pentan-1-one]
- IC50 (hSERT): 16 µM
